Patent publication US11046646B2, “Alkylphenyl compounds” (BRISTOL-MYERS SQUIBB COMPANY, priority 2017, dated 2021)

How the values were obtained:
S1P1 = S1P1 (Homo sapiens (Human), UniProt P21453); assay: Receptor [35S] GTPγS binding assay, S1P1; type: biochemical; settings: for EC50: membranes from S1P1/CHO cells, synthetically prepared phosphorylated compounds; for GTPγS S1P1 EC50 value as compared to Comparative Compound 20: in words
Procedure: (§1) Receptor [^35S] GTPγS Binding Assays:
(§2) Compounds were loaded in a 384 Falcon v-bottom plate (0.5 μL/well in a 11 point, 3-fold dilution). Membranes prepared from S1P1/CHO cells or EDG3-Gal5-bla HEK293T cells (EDG3 equivalent S1P3) were added to the compound plate (40 μL/well, final protein 3 μg/well) with MULTIDROP®. [^35S]GTP (1250 Ci/mmol, Perkin Elmer) was diluted in assay buffer: 20 mM HEPES, pH7.5, 10 mM MgCl2, 150 mM NaCl, 1 mM EGTA(ethylene glycol tetraacetic acid), 1 mM DTT (dithiothreitol), 10 μM GDP, 0.1% fatty acid free BSA, and 10 μg/ml Saponin to 0.4 nM. 40 μL of the [^35S] GTP solution was added to the compound plate with a final concentration of 0.2 nM. The reaction was kept at room temperature for 45 min. At the end of incubation, all the mixtures in the compound plate were transferred to Millipore 384-well FB filter plates via the VELOCITY11® Vprep liquid handler. The filter plate was washed with water 4 times by using the manifold Embla plate washer and dried at 60° C. for 45 min. MicroScint 20 scintillation fluid (30 μL) was added to each well for counting on the Packard TOPCOUNT®. EC50 is defined as the agonist concentration that corresponds to 50% of the Ymax (maximal response) obtained for each individual compound tested.
A smaller value for GTPγS S1P1 EC50 value indicated greater activity for the compound in the GTPγS S1P1 binding assay. Thus the compounds of the present invention may be used in treating, preventing, or curing various S1P1 receptor-related conditions. The compounds have potential use in treating, preventing, or curing autoimmune and inflammatory diseases such as multiple sclerosis, rheumatoid arthritis, inflammatory bowel disease, lupus, psoriasis, or minimizing or reducing rejection of transplanted organs.

S1P3 (EDG3) = S1P3 (EDG3) (Homo sapiens (Human), UniProt Q99500); assay: Receptor [35S] GTPγS binding assay, S1P3; type: biochemical; settings: membranes from EDG3-Gal5-bla HEK293T cells; synthetically prepared phosphorylated compounds
S1P3 (EDG3), sequence (Q99500 whole entry): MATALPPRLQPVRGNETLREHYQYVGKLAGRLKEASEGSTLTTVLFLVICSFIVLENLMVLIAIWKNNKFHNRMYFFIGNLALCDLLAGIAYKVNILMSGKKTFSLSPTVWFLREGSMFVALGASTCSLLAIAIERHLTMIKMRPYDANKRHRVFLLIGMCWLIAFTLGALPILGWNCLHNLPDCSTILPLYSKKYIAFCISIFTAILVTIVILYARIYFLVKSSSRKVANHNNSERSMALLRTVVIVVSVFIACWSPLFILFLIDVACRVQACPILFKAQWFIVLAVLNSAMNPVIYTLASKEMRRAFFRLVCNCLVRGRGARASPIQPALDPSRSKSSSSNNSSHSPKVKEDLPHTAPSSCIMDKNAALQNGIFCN
Procedure: as §1, §2

S1P1, sequence (P21453 whole entry): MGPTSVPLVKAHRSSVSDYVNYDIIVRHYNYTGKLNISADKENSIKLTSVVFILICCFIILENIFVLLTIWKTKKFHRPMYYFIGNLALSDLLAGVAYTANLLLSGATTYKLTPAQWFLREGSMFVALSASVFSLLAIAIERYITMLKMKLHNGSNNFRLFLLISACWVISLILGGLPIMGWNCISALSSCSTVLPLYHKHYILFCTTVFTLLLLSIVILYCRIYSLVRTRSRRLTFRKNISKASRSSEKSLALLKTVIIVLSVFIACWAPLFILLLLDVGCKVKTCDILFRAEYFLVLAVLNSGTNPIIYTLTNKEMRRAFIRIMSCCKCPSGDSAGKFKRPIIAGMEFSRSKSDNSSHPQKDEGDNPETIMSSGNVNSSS

Row | EC50 (S1P1) | EC50 (S1P3 (EDG3)) | GTPγS S1P1 EC50 value as compared to Comparative Compound 20 (S1P1) | SMILES
1 | 384 nM | > 30000 nM | – | CCCCCCCCc1ccc(N2CCC(N)(COP(=O)(O)O)C2)cc1 (stereo not shown) [compound 20, (3-amino-1-(4-octylphenyl)pyrrolidin-3-yl)methyl dihydrogen phosphate, reference compound]
2 | 454 nM | > 60000 nM | – | CCCCCCCCc1ccc(N2CCC(N)(COP(=O)(O)O)C2=O)cc1 (stereo not shown) [Example 18, (3-amino-1-(4-octylphenyl)-2-oxopyrrolidin-3-yl)methyl dihydrogen phosphate]
3 | 41 nM | > 30000 nM | significant improvement | CCCCCCCCc1ccc(CN2CCC(N)(COP(=O)(O)O)C2=O)cc1 (stereo not shown) [Example 14, (3-amino-1-(4-octylbenzyl)-2-oxopyrrolidin-3-yl)methyl dihydrogen phosphate]
4 | 161 nM | > 60000 nM | significant improvement | CCCCCCCCc1ccc(N2CCC(N)(COP(=O)(O)O)C2=O)c(C)c1 (stereo not shown) [Example 17, (3-amino-1-(2-methyl-4-octylphenyl)-2-oxopyrrolidin-3-yl)methyl dihydrogen phosphate]
